The values below come from ChEMBL document CHEMBL1759965, “Synthesis and pharmacological evaluation of bivalent antagonists of the nociceptin opioid receptor” (Eur J Med Chem, 2011).

The structures appear in SMILES notation. Activity calls are given as the source filed them. The calls are words filed in the database; no cut-off is given here.

The target of assay [1] is Delta-type opioid receptor (Homo sapiens) (UniProt P41143). Description: Displacement of [3H]-naltrindole from human delta opioid receptor expressed in human HEK293 cells after 2 hrs by scintillation counting. The format is cell-based.
Assay [2] concerns the target Kappa-type opioid receptor (Homo sapiens, UniProt P41145). The assay can be described thus: Displacement of [3H]-diprenorphine from human kappa opioid receptor expressed in human HEK293 cells after 2 hrs by scintillation counting.
The species named for assay [3] is Homo sapiens. Description: Selectivity ratio of IC50 for human mu opioid receptor to IC50 for human NOP receptor.
The target in assay [4] is T1, Nociceptin receptor (Homo sapiens, UniProt P41146). The assay can be described thus: Displacement of [125I]Tyr14-nociceptin from human NOP receptor expressed in human HEK293 cells after 90 mins by scintillation counting.
The target in assay [5] is T1, Nociceptin receptor. Description: Antagonist activity at human NOP receptor expressed in human HEK293 cells assessed as inhibition of GTPgammaS binding in presence of 300 nM GDP relative to control. The assay is classed as functional, cell-based.
For assay [6], the target named is Mu-type opioid receptor (Homo sapiens, UniProt P35372). Description: Displacement of [3H]-naltrindole from human mu opioid receptor expressed in CHO cells after 2 hrs by scintillation counting. The assay is classed as cell-based.
For assay [7], the species on record is Homo sapiens. The assay can be described thus: Selectivity ratio of IC50 for human kappa opioid receptor to IC50 for human NOP receptor.

Mu-type opioid receptor, sequence (P35372 whole entry): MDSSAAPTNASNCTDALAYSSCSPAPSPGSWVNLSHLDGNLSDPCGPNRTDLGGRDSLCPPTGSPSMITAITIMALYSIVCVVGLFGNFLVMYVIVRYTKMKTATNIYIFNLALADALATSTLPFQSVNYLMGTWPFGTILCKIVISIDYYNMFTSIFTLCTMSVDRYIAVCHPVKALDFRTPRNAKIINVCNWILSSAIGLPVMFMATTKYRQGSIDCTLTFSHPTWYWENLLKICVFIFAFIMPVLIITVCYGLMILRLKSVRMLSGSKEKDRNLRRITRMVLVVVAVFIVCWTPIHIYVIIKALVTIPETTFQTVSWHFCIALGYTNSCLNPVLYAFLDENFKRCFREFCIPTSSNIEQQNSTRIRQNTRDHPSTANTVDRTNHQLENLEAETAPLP
Kappa-type opioid receptor, sequence (P41145 whole entry): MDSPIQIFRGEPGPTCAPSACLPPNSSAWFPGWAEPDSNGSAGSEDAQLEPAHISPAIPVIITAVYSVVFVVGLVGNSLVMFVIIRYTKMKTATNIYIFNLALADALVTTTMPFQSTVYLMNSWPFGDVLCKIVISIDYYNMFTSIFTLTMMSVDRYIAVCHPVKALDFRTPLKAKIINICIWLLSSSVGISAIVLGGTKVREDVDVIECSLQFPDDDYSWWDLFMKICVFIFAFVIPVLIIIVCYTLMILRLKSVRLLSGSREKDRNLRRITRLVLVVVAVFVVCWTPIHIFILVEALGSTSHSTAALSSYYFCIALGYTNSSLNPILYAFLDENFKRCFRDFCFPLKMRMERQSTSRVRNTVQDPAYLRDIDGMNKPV
Delta-type opioid receptor (Homo sapiens), sequence (P41143 whole entry): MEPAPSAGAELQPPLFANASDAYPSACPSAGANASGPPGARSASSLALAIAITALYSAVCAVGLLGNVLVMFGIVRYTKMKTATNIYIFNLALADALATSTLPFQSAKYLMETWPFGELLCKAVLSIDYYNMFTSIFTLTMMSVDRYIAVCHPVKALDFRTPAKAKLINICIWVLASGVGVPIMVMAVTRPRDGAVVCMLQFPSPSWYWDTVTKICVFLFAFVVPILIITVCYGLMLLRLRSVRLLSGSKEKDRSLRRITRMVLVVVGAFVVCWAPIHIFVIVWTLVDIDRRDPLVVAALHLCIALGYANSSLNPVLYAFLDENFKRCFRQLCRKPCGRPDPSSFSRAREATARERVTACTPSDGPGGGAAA
T1 sequence (P41146 whole entry): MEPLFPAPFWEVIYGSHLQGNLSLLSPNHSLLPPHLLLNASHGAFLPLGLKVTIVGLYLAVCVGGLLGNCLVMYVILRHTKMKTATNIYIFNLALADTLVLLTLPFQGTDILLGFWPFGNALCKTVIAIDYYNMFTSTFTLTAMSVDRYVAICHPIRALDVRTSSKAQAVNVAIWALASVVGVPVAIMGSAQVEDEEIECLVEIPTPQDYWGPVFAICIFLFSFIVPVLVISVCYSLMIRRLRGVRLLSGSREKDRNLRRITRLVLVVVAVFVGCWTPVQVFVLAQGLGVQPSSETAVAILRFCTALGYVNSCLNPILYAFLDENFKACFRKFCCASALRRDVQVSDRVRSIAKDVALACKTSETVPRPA

Regarding `Cc1cc(N)c2cc(NC(=O)c3ccccc3COc3ccc(CNCCCCCCCCCCNCc4ccc(OCc5ccccc5C(=O)Nc5ccc6nc(C)cc(N)c6c5)cc4)cc3)ccc2n1`, the result in assay [1] was inactive. Moreover, the results for the IC50 in assay [2], in assay [4] and in assay [6] were 0.9 µM, 0.0327 µM and 1.32 µM, respectively. Besides, the figures for the Ratio IC50 in assay [3] and in assay [7] were 45 and 31, respectively. Further, the outcome in assay [5] was Active.

Turning to `Cc1cc(N)c2cc(NC(=O)c3ccccc3COc3ccc(CNCCCCCCNCc4ccc(OCc5ccccc5C(=O)Nc5ccc6nc(C)cc(N)c6c5)cc4)cc3)ccc2n1`, the outcome in assay [1] was inactive. In addition, the IC50 in assay [2] was 1.35 µM; in assay [4], 0.0717 µM; in assay [6], 1.39 µM. Further, the Ratio IC50 came out at 31 in assay [3] and 30 in assay [7]. In addition, the outcome in assay [5] was Active.

As for `CCCNCc1ccc(OCc2ccccc2C(=O)Nc2ccc3nc(C)cc(N)c3c2)cc1`, the outcome in assay [1] was inactive. Besides, the IC50 stood at 3.08 µM in assay [2], 0.083 µM in assay [4] and 3.35 µM in assay [6]. The Ratio IC50 in assay [3] is 49; in assay [7] it was 45. Moreover, the result in assay [5] was Active.

As to `Cc1cc(N)c2cc(NC(=O)c3ccccc3COc3ccc(CNCCCCCCCCN)cc3)ccc2n1`, in assay [1], the outcome was inactive. Besides, the IC50 in assay [2] came to 0.872 µM; in assay [4] it was 0.144 µM; in assay [6] it was 0.325 µM. The Ratio IC50 was determined as 3.2 in assay [3] and 8.6 in assay [7]. In addition, the result in assay [5] was Active.

Regarding `Cc1cc(N)c2cc(NC(=O)c3ccccc3COc3ccc(CNCCCCCNCc4ccc(OCc5ccccc5C(=O)Nc5ccc6nc(C)cc(N)c6c5)cc4)cc3)ccc2n1`, in assay [1], the result was inactive. Further, the IC50 in assay [2] is 1.5 µM; in assay [4], 0.0762 µM; in assay [6], 2.51 µM. The Ratio IC50 in assay [3] was 46; in assay [7] it was 28. Moreover, the outcome in assay [5] was Active.

For the compound `Cc1cc(N)c2cc(NC(=O)c3ccccc3COc3ccc(CNCCCCCCCCCNCc4ccc(OCc5ccccc5C(=O)Nc5ccc6nc(C)cc(N)c6c5)cc4)cc3)ccc2n1`, in assay [1], the result was inactive. Besides, the 50% inhibitory concentration (IC50) was 1.05 µM in assay [2], 0.0281 µM in assay [4] and 1.16 µM in assay [6]. Further, the Ratio IC50 is 40 in assay [3] and 36 in assay [7]. Moreover, in assay [5], the outcome was Active.

Take `Cc1cc(N)c2cc(NC(=O)c3ccccc3COc3ccc(CNCCCCNCc4ccc(OCc5ccccc5C(=O)Nc5ccc6nc(C)cc(N)c6c5)cc4)cc3)ccc2n1`: the result in assay [1] was inactive. Besides, the IC50 in assay [2] was determined as 1.09 µM; in assay [4], 0.0566 µM; in assay [6], 1.59 µM. The Ratio IC50 in assay [3] was 39; in assay [7], 27. Further, the result in assay [5] was Active.

With `CCCCCNCc1ccc(OCc2ccccc2C(=O)Nc2ccc3nc(C)cc(N)c3c2)cc1`, the result in assay [1] was inactive. Besides, the half-maximal inhibitory concentration (IC50) in assay [2] was determined as 3.67 µM; in assay [4], 0.732 µM; in assay [6], 4.45 µM. The Ratio IC50 came out at 16 in assay [3] and 13 in assay [7]. Further, the outcome in assay [5] was Active.

Consider `Cc1cc(N)c2cc(NC(=O)c3ccccc3COc3ccc(CNCCCCN)cc3)ccc2n1`, for which the result in assay [1] was inactive. Besides, the figures for the IC50 in assay [2], in assay [4] and in assay [6] were 4.26 µM, 0.8 µM and 5.33 µM, respectively. Also, the figures for the Ratio IC50 in assay [3] and in assay [7] were 9 and 7.2, respectively. Besides, in assay [5], the result was Active.

On to `CCCCCCCCCCNCc1ccc(OCc2ccccc2C(=O)Nc2ccc3nc(C)cc(N)c3c2)cc1`, for which, in assay [1], the result was inactive. Further, the concentration for half-maximal inhibition (IC50) in assay [2] was determined as 4.35 µM; in assay [4], 0.405 µM; in assay [6], 2.75 µM. The Ratio IC50 in assay [3] was 9.6; in assay [7], 15. In addition, in assay [5], the result was Active.

As to `Cc1cc(N)c2cc(NC(=O)c3ccccc3COc3ccc(CNCCCNCc4ccc(OCc5ccccc5C(=O)Nc5ccc6nc(C)cc(N)c6c5)cc4)cc3)ccc2n1`, the outcome in assay [1] was inactive. Moreover, the 50% inhibitory concentration (IC50) in assay [2] came out at 5.48 µM; in assay [4] it was 0.0765 µM; in assay [6], 0.468 µM. Moreover, the Ratio IC50 in assay [3] worked out at 15; in assay [7], 177. In assay [5], the outcome was Active.

`CCCCCCCNCc1ccc(OCc2ccccc2C(=O)Nc2ccc3nc(C)cc(N)c3c2)cc1`: in assay [1], the result was inactive. Further, the figures for the half-inhibitory concentration (IC50) in assay [2], in assay [4] and in assay [6] were 1.85 µM, 0.668 µM and 1.98 µM, respectively. In addition, the Ratio IC50 in assay [3] amounted to 6.6; in assay [7] it was 6.2. In addition, in assay [5], the result was Active.
